# Measurements: patent US10273279B2, “Protease activated receptor-1 (PAR1) derived cytoprotective polypeptides and related methods” (THE SCRIPPS RESEARCH INSTITUTE, priority 2011, dated 2019)
# Where no end group is shown, it is not given here.
# How the values were obtained:
# [1] = test system: glycogen synthase kinase 3β (GSK3β) phosphorylation at Ser9; assay: GSK3β Ser9 phosphorylation in endothelial cells; format: cell-based, human
# Experimental: To further confirm activation of Akt by the TR47-66 peptide, Akt-mediated inactivation of glycogen synthase kinase 3β (GSK3β) via phosphorylation at Ser9 was determined. GSK3β is a well-known downstream substrate for Akt.
# [2] = test system: SEAP-PAR1; assay: SEAP-PAR1 cleavage reporter on transfected HEK-293 cells (SEAP release); format: cell-based, human; conditions: independent of EPCR
# Source text: To facilitate analysis of APC-mediated PAR-1 activation, we created a full-length PAR-1 construct linked at the N-terminus to an alkaline phosphatase reporter group (SEAP). Selection of stable cell lines expressing both endothelial protein C receptor (EPCR) (wt or E86A) and SEAP-PAR1 allowed for a reliable and reproducible analysis of EPCR-dependent PAR-1 activation by APC. Mass-spec analysis of cleavage fragments generated by APC of a synthetic PAR-1 N-terminal tail peptide (TR33-62) identified both Arg^41 and Arg^46 as potential cleavage sites for APC proteolysis, as noted above. […] R41Q-SEAP-PAR1 was cleaved by APC in the presence of EPCR. This surprising result was also obtained for R41A-SEAP PAR1.
# 2009; 113:5970-5978. SEAP-PAR1, either in the presence or absence of wt-EPCR, were transfected into HEK-293 cells to obtain stable cells expressing SEAP-PAR1 or wt-EPCR/SEAP-PAR1. Mutations in SEAP-PAR1 were introduced using the Quickchange method (Agilent). Cells were grown in 96-wells plates to confluency in Dulbeco's modified Eagle media (DMEM): Ham's F-12 (Invitrogen) supplemented with penicillin-streptomycin-glutamine (PSG) (Gibco) and 10% fetal bovine serum (Omega) in a humidified atmosphere at 37° C. and 5% CO2 Cells were washed with Hank's balanced salt solution (HBSS; Invitrogen) supplemented with 1.3 mM CaCl2, 0.6 mM MgCl2 and 0.1% endotoxin free BSA (Calbiochem) and incubated with APC. After 60 min, SEAP release was determined using 1-step PNPP (Pierce). Values were corrected for background activity derived from the same cells incubated in the absence of APC and expressed as a percentage of total SEAP available on the cell membrane.
# [3] = test system: ERK1/2 phosphorylation at Thr202/204 in EA.hy.926 human endothelial cells; assay: ERK1/2 phosphorylation in EA.hy.926 endothelial cells (in-cell Western); format: cell-based
# Source text: (§1) Activated Protein C (APC) cleaves a synthetic PAR1 tail peptide at Arg^41 and Arg^46; furthermore, APC cleaves SEAP-PAR1 mutants with the mutations R41A or R41Q but not SEAP-PAR1 with both R41Q/R46Q mutations. […] It was thus hypothesized that a new PAR1 N-terminus beginning at residue Asn-47 promotes PAR1 signaling and APC cytoprotective activities. Since phosphorylation of signaling network components is useful for monitoring activation of signaling pathways, the effects of synthetic PAR1 peptides on Akt and ERK1/2 phosphorylation in EA.hy.926 human endothelial cells were studied. Cells were treated for 0, 5 or 30 min with peptides prior to cell fixation, permeabilization of cells and subsequent immunoblotting analysis (“in-cell Western blotting”). Relative phosphorylation of Akt at Ser^473 (pSer^473-Akt) or of ERK1/2 at Thr202/204 (pERK1/2) in endothelial cells was quantified using the LI-COR Odyssey infrared (IR) fluorescence imaging system which permits “in cell” Western blots. The Odyssey permits simultaneous quantification of different antibodies that yield either red or green signals.
# (§2) Methods: EA.hy.926 cells (ATCC: CRL-2922) were grown in black clear bottom 96 well plates (Nunc) in DMEM (Invitrogen #12430) supplemented with glutamax (Invitrogen #35050) and 10% FBS (Hyclone #35-011-CV) in a 37° C. cell incubator with a humidified atmosphere and 5% CO2 in air until confluency. Cells were treated for 0, 5 or 30 min with PAR1 peptides TFLL (50 μM), NPND (250 μM) or scr-NPND (250 μM) or with vehicle in serum free media. Subsequently cells were fixed with methanol free 4% para-formaldehyde (Pierce), washed with phosphate buffered saline (PBS; Invitrogen) containing 1% triton X-100 and blocked with Odyssey blocking buffer (Licor). Cells were incubated with rabbit anti-pT202/Y204 ERK1/2 (1/1000; Cell signaling D13.14.4E) or rabbit anti-pSer^473 (1/100; cell signaling D9E) with Odyssey blocking buffer. After washing with PBS/0.1% Tween (1/800), IRDye 800CW-labelled secondary goat anti-rabbit antibodies (Licor) were added to the cells in Odyssey blocking buffer and 1/10,000 Draq5 (Biostatus) for cell normalization. After final washing with PBS/0.1% Tween IR, the fluorescence of bound antibodies was determined using the Odyssey (Licor). Background fluorescence was determined by omitting the primary antibody and subtracting values for controls from all other observed values.
# [4] = test system: Akt phosphorylation at Ser473 in EA.hy.926 human endothelial cells; assay: Akt Ser473 phosphorylation in EA.hy.926 endothelial cells (in-cell Western); format: cell-based
# Source text: as §1, §2
# [5] = test system: EA.hy.926 endothelial cells; assay: Staurosporine-induced endothelial cell apoptosis (Apopercentage dye); format: cell-based, human; conditions: 4 hrs pretreatment; 50 μM NPND, 50 μM scr-NPND or 10 μM TFLL; staurosporine 10 μM
# Experimental: Activated Protein C (APC) conveys anti-apoptotic activity to EA.hy.926 cells that requires functional PAR1 receptor and APC binding to the endothelial protein C receptor (EPCR). See, e.g., Mosnier at al., Biochem J. 2003; 373:65-70; and Mosnier at al., Blood. 2007; 109:3161-3172.
# Methods: EA.hy.926 cells (ATCC: CRL-2922) were grown in 24 well plates in DMEM (Invitrogen #12430) supplemented with glutamax (Invitrogen #35050) and 10% FBS (Hyclone #35-011-CV) in a 37° C. cell incubator with a humidified atmosphere and 5% CO2 in air until confluency. Cells were treated for 4 hrs with vehicle control, 50 μM NPND, 50 μM scr-NPND or 10 μM TFLL after which staurosporine (10 μM) and the Apopercentage dye (Biocolor) were added according the manufacturer's instructions. After 1 hr cells were washed with 2×1 ml PBS and 110 μl of the dye release agent was added to the cells. Subsequently 100 μl aliquots were transferred to a black 96 well plate and fluorescence was measured (530 nm excitation/580 nm emission). Apoptosis was expressed as a percentage of cells treated with 10 mM H2O2 for which apoptosis was set at 100%.
# [6] = 0, 5 or 30 min, TFLL 50 μM, NPND 250 μM, scr-NPND 250 μM
compound,measurement,setting,value
CC(C)c1ccc(Cn2ccc3c4c(N)nc(NC5CC5)nc4ccc32)cc1 [SCH79797],effect on TR47-66-induced Ser9-GSK3β phosphorylation,[1]; PAR1 antagonist added to TR47-66,inhibited
elastase [reference compound],cleavage of all PAR1 constructs on cells,[2],cleaved all PAR1 constructs on cells with similar efficacy
TFLLRNPNDK (not fully specified) [reference compound],ERK1/2 phosphorylation (pERK1/2),[3]; [6],quickly but transiently stimulated
same,activation of ERK1/2,[3]; Example 7,did so
same,pSer473-Akt (Akt phosphorylation),[4]; [6],essentially no effect
same,Ser473-Akt phosphorylation (activation of Akt),"[4]; Example 7, under the employed experimental conditions",neither thrombin nor TRAP induced
same,phosphorylation of GSK3β at Ser9,[1]; Example 7,did not result in Ser9-GSK3β phosphorylation
same,inhibition of staurosporine-induced endothelial cell apoptosis,[5],did not convey detectable anti-apoptotic effects
